Data on seven molecules can be found in US20230248834A1, “DEGRADATION OF (EGFR) BY CONJUGATION OF EGFR INHIBITORS WITH E3 LIGASE LIGAND AND METHODS OF USE” (BEIGENE, LTD., priority 2020, published 2023).

SMILES strings stand for the structures.

The term Dmax denotes the greatest extent of degradation seen.

In this assay the target is T1, EGFR L858R/T790M/C797S (Homo sapiens, UniProt P00533, C797S/L858R/T790M).
T1 construct: expressed in transfected cells; host or cells: BaF3-LTC
The assay can be described thus: EGFR degradation HTRF assay in BaF3-LTC cells. It is filed as cell-based. The note with it: BaF3-LTC (L858R/T790M/C797S), maximum percentage of inhibition (degradation); read-out: BaF3-LTC Dmax (%). On the procedure: BaF3-LTC(L858R/T790M/C797S) cells and BaF3 LC(L858R/C797S) cells are treated with compounds diluted in 0.2% DMSO cell culture medium and incubate for 16 h, 37° C., 5% CO2. the final concentration of compounds in all assay is start with 10 uM, 5-fold dilution, total 8 doses were included.
After 16 h treatment, add HTRF lysis buffer to each well; seal the plate and incubate 1 hour at room temperature on a plate shaker; Once the cells are lysed, 16 μL of cell lysate are transferred to a PE 384-well HTRF detection plate; 4 μL of pre-mixed HTRF antibodies are added to each well; Cover the plate with a plate sealer, spin 1000 rpm for 1 min, Incubate overnight at room temperature; Read on BMG PheraStar with HTRF protocol (337 nm-665 nm-620 nm).
The inhibition (degradation) percentage of the compound was calculated by the following equation: Inhibition percentage of Compound=100−100×(Signal−low control)/(High control−low control), wherein signal=each test compound group
High control=Cell group with added DMSO and without compound, indicating microplate readings without EGFR degradation;
Dmax is the maximum percentage of inhibition (degradation).
The IC50 (DC50) value of a compound can be obtained by fitting the following equation
Y=Bottom+(TOP−Bottom)/(1+((IC50/X)^hillslope))
Wherein, X and Y are known values, and IC50, Hillslope, Top and Bottom are the parameters obtained by fitting with software. Y is the inhibition percentage (calculated from the equation), X is the concentration of the compound; IC50 is the concentration of the compound when the 50% inhibition is reached. The smaller the IC50 value is, the stronger the inhibitory ability of the compound is. Vice versa, the higher the IC50 value is, the weaker the inhibitory ability of the compound is; Hillslope represents the slope of the fitted curve, generally around 1*; Bottom represents the minimum value of the curve obtained by data fitting, which is generally 0%±20%; Top represents the maximum value of the curve obtained by data fitting, which is generally 100%±20%. The experimental data were fitted by calculating and analyzing with Dotmatics data analysis software.
For orientation: TR-FRET usually uses a lanthanide donor and a delayed reading to cut background.

T1 sequence (P00533 25-1210 T790M/C797S/L858R): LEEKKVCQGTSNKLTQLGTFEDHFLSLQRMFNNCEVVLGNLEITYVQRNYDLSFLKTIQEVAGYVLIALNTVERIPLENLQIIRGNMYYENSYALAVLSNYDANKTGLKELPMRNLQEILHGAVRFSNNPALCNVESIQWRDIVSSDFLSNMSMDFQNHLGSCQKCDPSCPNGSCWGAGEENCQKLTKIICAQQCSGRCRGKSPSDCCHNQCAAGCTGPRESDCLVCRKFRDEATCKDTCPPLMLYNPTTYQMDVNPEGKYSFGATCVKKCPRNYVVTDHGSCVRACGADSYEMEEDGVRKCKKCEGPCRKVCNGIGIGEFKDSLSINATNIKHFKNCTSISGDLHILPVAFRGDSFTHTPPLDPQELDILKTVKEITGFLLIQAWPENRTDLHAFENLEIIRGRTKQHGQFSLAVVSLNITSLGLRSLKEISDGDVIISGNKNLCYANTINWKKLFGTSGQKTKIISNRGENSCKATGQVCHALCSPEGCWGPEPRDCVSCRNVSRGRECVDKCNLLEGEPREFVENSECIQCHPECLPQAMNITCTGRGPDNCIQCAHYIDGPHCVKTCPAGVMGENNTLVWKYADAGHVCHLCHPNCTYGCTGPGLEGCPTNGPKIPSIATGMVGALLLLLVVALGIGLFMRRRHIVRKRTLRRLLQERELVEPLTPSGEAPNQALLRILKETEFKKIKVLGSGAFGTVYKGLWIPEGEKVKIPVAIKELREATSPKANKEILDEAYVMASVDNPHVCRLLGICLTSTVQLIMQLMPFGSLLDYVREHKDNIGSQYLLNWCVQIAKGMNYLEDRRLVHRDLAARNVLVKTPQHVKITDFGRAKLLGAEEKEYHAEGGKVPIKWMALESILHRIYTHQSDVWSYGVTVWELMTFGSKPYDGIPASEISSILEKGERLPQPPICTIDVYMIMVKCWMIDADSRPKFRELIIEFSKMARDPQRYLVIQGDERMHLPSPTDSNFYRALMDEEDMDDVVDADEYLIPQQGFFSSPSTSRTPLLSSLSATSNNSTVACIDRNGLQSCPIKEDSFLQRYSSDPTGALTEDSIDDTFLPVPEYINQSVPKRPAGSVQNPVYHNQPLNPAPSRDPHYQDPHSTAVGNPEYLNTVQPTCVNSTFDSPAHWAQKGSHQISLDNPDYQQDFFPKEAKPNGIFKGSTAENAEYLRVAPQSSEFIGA

As for `CCOc1cc(N2CCC(N3CCN(C(=O)[C@H]4CN(c5cc(F)c([C@H]6CCC(=O)NC6=O)c(F)c5)CC4(C)C)CC3)CC2)c(CC)cc1Nc1ncc(Br)c(Nc2cc(F)c3nc(CC)ccc3c2P(C)(C)=O)n1` [Example 746, (R)-3-(4-((R)-4-(4-(1-(4-((5-bromo-4-((5-(dimethylphosphoryl)-2-ethyl-8-fluoroquinolin-6-yl)amino)pyrimidin-2-yl)amino)-5-ethoxy-2-ethylphenyl)piperidin-4-yl)piperazine-1-carbonyl)-3,3-dimethylpyrrolidin-1-yl)-2,6-difluorophenyl)piperidine-2,6-dione], the Dmax amounted to 95.5%.
As for `CCOc1cc(N2CCC(N3CCN(CC4CN(c5cc(F)c([C@H]6CCC(=O)NC6=O)c(F)c5)C4)CC3)CC2)c(CC)cc1Nc1ncc(Br)c(Nc2ccc3nc(CC)ccc3c2P(C)(C)=O)n1` [Example 541, (R)-3-(4-(3-((4-(1-(4-((5-bromo-4-((5-(dimethylphosphoryl)-2-ethylquinolin-6-yl)amino)pyrimidin-2-yl)amino)-5-ethoxy-2-ethylphenyl)piperidin-4-yl)piperazin-1-yl)methyl)azetidin-1-yl)-2,6-difluorophenyl)piperidine-2,6-dione], the maximal degradation (Dmax) worked out at 95.6%.
As for `CCc1cc(Nc2ncc(Br)c(Nc3ccc4nccnc4c3P(C)(C)=O)n2)c(OC)cc1N1CCC(N2CCN(CCc3cc(F)c([C@H]4CCC(=O)NC4=O)c(F)c3)CC2)CC1` [Example 751, (R)-3-(4-(2-(4-(1-(4-((5-bromo-4-((5-(dimethylphosphoryl)quinoxalin-6-yl)amino)pyrimidin-2-yl)amino)-2-ethyl-5-methoxyphenyl)piperidin-4-yl)piperazin-1-yl)ethyl)-2,6-difluorophenyl)piperidine-2,6-dione], the figure is 94.6%; as for `COc1cc(N2CCC(N3CCN(C(=O)[C@H]4CN(c5cc(F)c([C@H]6CCC(=O)NC6=O)c(F)c5)CC4(C)C)CC3)CC2)c(C)cc1Nc1ncc(Br)c(Nc2ccc3nc(C)c(F)cc3c2P(C)(C)=O)n1` [Example 729, (R)-3-(4-((R)-4-(4-(1-(4-((5-bromo-4-((5-(dimethylphosphoryl)-3-fluoro-2-methylquinolin-6-yl)amino)pyrimidin-2-yl)amino)-5-methoxy-2-methylphenyl)piperidin-4-yl)piperazine-1-carbonyl)-3,3-dimethylpyrrolidin-1-yl)-2,6-difluorophenyl)piperidine-2,6-dione], 97.1%.
As to `CCOc1cc(N2CCC(N3CCN(CCc4cc(F)c([C@H]5CCC(=O)NC5=O)c(F)c4)CC3)CC2)c(CC)cc1Nc1ncc(Br)c(Nc2ccc3nc(C)c(F)cc3c2P(C)(C)=O)n1` [Example 728, (R)-3-(4-(2-(4-(1-(4-((5-bromo-4-((5-(dimethylphosphoryl)-3-fluoro-2-methylquinolin-6-yl)amino)pyrimidin-2-yl)amino)-5-ethoxy-2-ethylphenyl)piperidin-4-yl)piperazin-1-yl)ethyl)-2,6-difluorophenyl)piperidine-2,6-dione], the maximal degradation (Dmax) was 95.3%.
In the case of `CCc1ccc2c(P(C)(C)=O)c(Nc3nc(Nc4cc(CC)c(N5CCC(C6CCN(CCc7cc(F)c([C@H]8CCC(=O)NC8=O)c(F)c7)CC6)CC5)cc4OC)ncc3Br)ccc2n1` [Example 745, (R)-3-(4-(2-(1′-(4-((5-bromo-4-((5-(dimethylphosphoryl)-2-ethylquinolin-6-yl)amino)pyrimidin-2-yl)amino)-2-ethyl-5-methoxyphenyl)-[4,4′-bipiperidin]-1-yl)ethyl)-2,6-difluorophenyl)piperidine-2,6-dione] it was 88.7%; in that of `CCOc1cc(N2CCC(N3CCN(CCc4cc(F)c(F)c5c4n(CC)c(=O)n5C4CCC(=O)NC4=O)CC3)CC2)c(CC)cc1Nc1ncc(Br)c(Nc2ccc3nc(CC)ccc3c2P(C)(C)=O)n1` (stereo not shown) [Example 742, 3-(4-(2-(4-(1-(4-((5-bromo-4-((5-(dimethylphosphoryl)-2-ethylquinolin-6-yl)amino)pyrimidin-2-yl)amino)-5-ethoxy-2-ethylphenyl)piperidin-4-yl)piperazin-1-yl)ethyl)-3-ethyl-6,7-difluoro-2-oxo-2,3-dihydro-1H-benzo[d]imidazol-1-yl)piperidine-2,6-dione], 78.1%.
